Assay results reported in patent US9593139B2, “Compositions, methods, and kits comprising platinum compounds associated with a ligand comprising a targeting moiety” (priority 2013, dated 2017).

Tests used:
A2780CP70 cells = experiment: MTT cytotoxicity assay, cisplatin-resistant ovarian cancer cell line; type: cell-based; conditions: for IC50: A2780CP70 (cisplatin-resistant), MTT, 72 h incubation; for R.F. (resistance factor, IC50(resistant)/IC50(sensitive)): A2780CP70 vs A2780, 72 h incubation
Method: (§1) A2780 and A2780CP70 (ovarian cisplatin-sensitive and -resistant) cell lines were obtained from Fox Chase Cancer Center and cultured in RPMI-1640 medium supplemented with 10% fetal bovine serum (FBS) and 1% penicillin/streptomycin.
(§2) The colorimetric MTT assay was used to assess cytotoxicity. In a 96-well plate, 2000 cells per well were seeded in 100 μL growth medium and allowed to attach overnight. The growth media was then aspirated and replaced with 100 μL of growth medium containing varying concentrations of the platinum complexes. Six wells were used per concentration level. After 72 h, the platinum-containing media was aspirated and replaced with 200 μL of RPMI-1640 containing 0.67 mg/mL MTT. The cells were further incubated for 4 h. The MTT solution was removed, and the resulting purple formazan crystals were dissolved in 100 μL of 25:1 mixture of DMSO and aqueous ammonia. The absorbance was measured at 550 nm. The absorbance values were normalized to the Pt-free wells (100% cell viability) and are plotted versus platinum concentration. […] These experiments were repeated at least three times, and the reported IC50 values are the averages of these trials with the error estimated from the resulting standard deviations.

A2780 cells = experiment: MTT cytotoxicity assay, cisplatin-sensitive ovarian cancer cell line; type: cell-based; conditions: 72 h incubation
Method: as §1, §2

| Molecule | IC50 (A2780CP70 cells) | R.F. (resistance factor, IC50(resistant)/IC50(sensitive)) (A2780CP70 cells) | IC50 (A2780 cells) |
| --- | --- | --- | --- |
| O=C1[O][Pt-2]2([NH2+]C3CCCC[C@H]3[NH2+]2)[O]C1=O (stereo partly drawn) [Oxaliplatin, (R,R-1,2-diaminocyclohexane)oxalatoplatinum(II)] | 1 µM | 4.1 ± 0.4 | 0.25 µM |
| N.N.[Cl][Pt][Cl] [cisplatin, cis-diamminedichloroplatinum(II)] | 5.2 ± 1.4 µM | 8.7 ± 2.6 | 0.6 ± 0.08 µM |
| [Pt(acac)(NH3)2](SO4)0.5 | 122 ± 10 µM | 8.8 ± 1.4 | 13.9 ± 1.9 µM |
| [Pt(succac)(NH3)2]-r(Fxr)3-CONH2 [Pt-MPP] | 5 ± 1.4 µM | 0.7±0.2 | 7.5 ± 0.3 µM |
